Literature values in article PMC6504684 (Frontiers in Pharmacology, 2019).

Test system: α9α10 nAChRs, mutation α9-Asp121Leu
Conditions: cited from earlier work

**Q.** Which “increase of EC50” value does the source give for `CC(=O)OCC[N+](C)(C)C` [ACh, acetylcholine] here?
**A.** Its value is roughly 30 times.
